From patent US20040152746A1, “Treatment of scarring and related conditions using ppar-gamma activators” (priority 2001, published 2004)
Marks after values point to notes of the source that are not given here.

System: Human dermal fibroblasts differentiated to myofibroblasts with TGF-beta1
Assay: Myofibroblast number after treatment with pioglitazone (alpha-smooth muscle actin immunohistochemistry)
Assay type: cell-based
Details: 3 days differentiation medium with 1 ng/ml TGF-beta1, % positive cells/total cells, control 3.47
Method: Human dermal fibroblasts were cultured on sterile cover-slips and allowed to adhere for 24 hours in fibroblast medium, i.e. (1.0 ml L-Glutamine (200 mM; Gibco), 1.0 ml non-essential amino acids, NEAA(100×; Gibco), 1.0 ml penicillin/streptomycin (100×Gibco), 10 ml new-born calf serum, NBCS (Gibco), 87 ml Dulbecco's modified Eagle's Medium, DMEM (Gibco)). At confluence, the medium was changed to myofibroblast differentiation medium, i.e. 1.0 ml L-Glutamine (200 mM; Gibco), 1.0 ml non-essential amino acids, NEAA(100×; Gibco), 10 ml penicillin/streptomycin (100×Gibco), 1 ml ITS (Insulin, Transferrin, Selenium)(100×Gibco)) supplemented with 1 ng/ml TGF-beta1 (Sigma). Myofibroblast differentiation was allowed to proceed for 3 days either in the presence of variable concentrations of pioglitazone or without. Myofibroblast number was determined by immunohistochemistry according to the following protocol. Cells were washed in phosphate buffered saline (PBS), then fixed in 3% paraformaldehyde for 5 mins followed by quenching in 50 mM ammonium chloride. The cells were then washed and permeabilised with 0.2% Triton X-100 in PBS. All antibodies were diluted into 0.2% fish skin gelatin (FSG) (Sigma). Prior to antibody detection non-specific binding was blocked using 0.2% FSG in PBS. Mouse anti-human alpha-smooth muscle actin (Sigma) was diluted 1:100 and incubated with the cells for 45 mins followed by washing. Rabbit anti-mouse immunoglobulin horseradish-peroxidase secondary antibody was incubated for 30 mins. Visualisation used Fast-DAB (Sigma) according to manufacturer's instructions. Cells were counterstained with haemotoxylin. […] Haemotoxylin stained nuclei were counted by the software using size-exclusion parameters which excluded small and large debris. Accuracy was determined within the software using binary overlays of the counted objects to examine if any non-nuclei counts occurred or if any nuclei were missed. […] DAB positive cells were counted by hand on the captured images. Counts are expressed as % positive cells/total cells.

CCc1ccc(CCOc2ccc(CC3SC(=O)NC3=O)cc2)nc1 (stereo not drawn) [pioglitazone]
% Myofibroblasts (0.1 μM pioglitazone, p < 0.05): 1.81* %
% Myofibroblasts (1 μM pioglitazone, p < 0.005): 0.71** %
% Myofibroblasts (10 μM pioglitazone, p < 0.005): 0.10** %
